Data taken from patent EP0361954A2, “CRF Analogs” (THE SALK INSTITUTE FOR BIOLOGICAL STUDIES, priority 1988, dated 1990).
Non-standard residues stand in square brackets, D forms with d. Nle = CCCC[C@H](N)C(=O)O; Nva = CCC[C@H](N)C(=O)O

How the values were obtained:
[1] = In vivo testing (general procedure of C. Rivier et al., Science, 218, 377 (1982)): duration of potency and blood pressure; settings: for lowering of blood pressure: general procedure of Example III
Protocol: (§1) The synthetic peptide [D-Glu²⁰]-oCRF is examined for its effects on the secretion of ACTH and β-endorphin in vitro and was also in vivo. The potency of synthetic [D-Glu²⁰]-oCRF to stimulate the secretion of ACTH and β-endorphin by cultured rat pituitary cells is measured using the procedure as generally set forth in Endocrinology, 91, 562 (1972) and compared against synthetic oCRF. […] In vivo testing is carried out using the general procedure set forth in C.

[2] = test system: cultured rat pituitary cells; assay: Secretion of ACTH and β-endorphin by cultured rat pituitary cells (procedure of Endocrinology, 91, 562 (1972)); format: cell-based; settings: for stimulation of the secretion of ACTH and β-END-LI: testing by the general procedure of Example III; for EC50: stimulation of secretion of ACTH and β-endorphin, cultured rat pituitary cells, read-out: Half-maximal responses (concentration of the peptide)
Protocol: as §1

Molecule | lowering of blood pressure [1] | stimulation of the secretion of ACTH and β-END-LI [2] | further results
CC[C@H](C)[C@H](NC(=O)[C@@H](NC(=O)[C@H](CC(=O)O)NC(=O)[C@H](CC(C)C)NC(=O)[C@H](CC(C)C)NC(=O)[C@H](CC(C)C)NC(=O)[C@H](CCCNC(=N)N)NC(=O)[C@H](CC(N)=O)NC(=O)[C@H](CC(N)=O)NC(=O)[C@H](C)NC(=O)[C@H](C)NC(=O)[C@H](CCC(N)=O)NC(=O)[C@H](CCC(=O)O)NC(=O)[C@H](CCCCN)NC(=O)[C@H](CCC(=O)O)NC(=O)[C@H](CCCCN)NC(=O)[C@H](CCC(=O)O)NC(=O)[C@H](CCC(N)=O)NC(=O)[C@H](CCCCN)NC(=O)[C@H](CCCNC(=N)N)NC(=O)[C@H](C)NC(=O)[C@@H](CCC(=O)O)NC(=O)[C@@H](NC(=O)[C@H](CCSC)NC(=O)[C@H](CCCCN)NC(=O)[C@H](CCCNC(=N)N)NC(=O)[C@H](CC(C)C)NC(=O)[C@H](CC(C)C)NC(=O)[C@H](CCC(=O)O)NC(=O)[C@@H](Cc1ccccc1)NC(=O)[C@H](CO)NC(=O)[C@H](CC(C)C)NC(=O)[C@H](CC(=O)O)NC(=O)[C@@H](NC(=O)[C@H](CO)NC(=O)[C@@H](NC(=O)[C@@H]1CCCN1C(=O)[C@@H]1CCCN1C(=O)CNC(=O)[C@@H]1CCC(=O)N1)[C@@H](C)CC)[C@@H](C)CC)[C@@H](C)CC)[C@@H](C)CC)C(N)=O | very significant lowering of blood pressure | stimulates the secretion of ACTH and β-END-LI | –
CCCC[C@H](NC(=O)[C@@H](CCC(=O)O)NC(=O)[C@H](CC(C)C)NC(=O)[C@@H](NC(=O)[C@H](CCC(=O)O)NC(=O)[C@H](CCCNC(=N)N)NC(=O)[C@H](CC(C)C)NC(=O)[C@H](CC(C)C)NC(=O)[C@H](Cc1c[nH]cn1)NC(=O)[C@H](Cc1ccccc1)NC(=O)[C@@H](NC(=O)[C@H](CC(C)C)NC(=O)[C@H](CC(=O)O)NC(=O)[C@H](CC(C)C)NC(=O)[C@H](CO)NC(=O)[C@@H](NC(=O)[C@@H]1CCCN1C(=O)[C@@H]1CCCN1C(=O)[C@H](CCC(=O)O)NC(=O)[C@H](CCC(N)=O)NC(=O)[C@@H](N)CO)[C@@H](C)CC)[C@@H](C)O)C(C)C)C(=O)N[C@H](C(=O)N[C@@H](CCCCN)C(=O)N[C@@H](C)C(=O)N[C@@H](CC(=O)O)C(=O)N[C@@H](CCC(N)=O)C(=O)N[C@@H](CC(C)C)C(=O)N[C@@H](C)C(=O)N[C@@H](CCC(N)=O)C(=O)N[C@@H](CCC(N)=O)C(=O)N[C@@H](C)C(=O)N[C@H](Cc1c[nH]cn1)C(=O)N[C@@H](CO)C(=O)N[C@@H](CC(N)=O)C(=O)N[C@@H](CCCNC(=N)N)C(=O)N[C@@H](CCCCN)C(=O)N[C@@H](CC(C)C)C(=O)N[C@@H](CC(C)C)C(=O)N[C@@H](CC(=O)O)C(=O)N[C@H](C(=O)N[C@@H](C)C(N)=O)[C@@H](C)CC)[C@@H](C)O [[D-Glu²⁰, Nle²¹, D-His³²]-oCRF] | very significant lowering of blood pressure | – | –
CC[C@H](C)[C@H](NC(=O)[C@H](CC(=O)O)NC(=O)[C@H](CC(C)C)NC(=O)[C@H](CC(C)C)NC(=O)[C@H](CCCCN)NC(=O)[C@H](CCCNC(=N)N)NC(=O)[C@H](CC(N)=O)NC(=O)[C@H](CO)NC(=O)[C@H](Cc1c[nH]cn1)NC(=O)[C@H](C)NC(=O)[C@H](CCC(N)=O)NC(=O)[C@H](CCC(N)=O)NC(=O)[C@H](C)NC(=O)[C@H](CC(C)C)NC(=O)[C@H](CCC(N)=O)NC(=O)[C@H](CC(=O)O)NC(=O)[C@H](C)NC(=O)[C@H](CCCCN)NC(=O)[C@@H](NC(=O)[C@H](CCSC)NC(=O)[C@@H](CCC(=O)O)NC(=O)[C@H](CC(C)C)NC(=O)[C@@H](NC(=O)[C@H](CCC(=O)O)NC(=O)[C@H](CCCNC(=N)N)NC(=O)[C@H](CC(C)C)NC(=O)[C@H](CC(C)C)NC(=O)[C@H](Cc1c[nH]cn1)NC(=O)[C@H](Cc1ccccc1)NC(=O)[C@@H](NC(=O)[C@H](CC(C)C)NC(=O)[C@H](CC(=O)O)NC(=O)[C@H](CC(C)C)NC(=O)[C@H](CO)NC(=O)[C@@H](NC(=O)[C@@H]1CCCN1C(=O)[C@@H]1CCCN1C(=O)[C@H](CCC(=O)O)NC(=O)[C@H](CCC(N)=O)NC(=O)[C@@H](N)CO)[C@@H](C)CC)[C@@H](C)O)C(C)C)[C@@H](C)O)C(=O)N[C@@H](C)C(N)=O [[D-Glu²⁰]-oCRF] | significant lowering of blood pressure | – | duration of potency [1]: longer duration of potency; potency compared with the native hormone ([2]; in vitro, compared against synthetic oCRF / native peptides): about twice as potent as the native hormone; secretory response to maximal concentrations ([2]; maximal (1-5 nM) concentrations): at a plateau level; EC50 [2]: ~0.17 nM
CC[C@H](C)[C@H](NC(=O)[C@H](CC(=O)O)NC(=O)[C@H](CC(C)C)NC(=O)[C@H](CC(C)C)NC(=O)[C@H](CCCCN)NC(=O)[C@H](CCCNC(=N)N)NC(=O)[C@H](CC(N)=O)NC(=O)[C@H](CO)NC(=O)[C@H](Cc1c[nH]cn1)NC(=O)[C@H](C)NC(=O)[C@H](CCC(N)=O)NC(=O)[C@H](CCC(N)=O)NC(=O)[C@H](C)NC(=O)[C@H](CC(C)C)NC(=O)[C@H](CCC(N)=O)NC(=O)[C@H](CC(=O)O)NC(=O)[C@H](C)NC(=O)[C@H](CCCCN)NC(=O)[C@@H](NC(=O)[C@H](CCSC)NC(=O)[C@H](CCC(=O)O)NC(=O)[C@H](CC(C)C)NC(=O)[C@@H](NC(=O)[C@H](CCC(=O)O)NC(=O)[C@H](CCCNC(=N)N)NC(=O)[C@H](CC(C)C)NC(=O)[C@H](CC(C)C)NC(=O)[C@H](Cc1c[nH]cn1)NC(=O)[C@H](Cc1ccccc1)NC(=O)[C@@H](NC(=O)[C@H](CC(C)C)NC(=O)[C@H](CC(=O)O)NC(=O)[C@H](CC(C)C)NC(=O)[C@H](CO)NC(=O)[C@@H](NC(=O)[C@@H]1CCCN1C(=O)[C@@H]1CCCN1C(=O)[C@H](CCC(=O)O)NC(=O)[C@H](CCC(N)=O)NC(=O)[C@@H](N)CO)[C@@H](C)CC)[C@@H](C)O)C(C)C)[C@@H](C)O)C(=O)N[C@@H](C)C(N)=O [oCRF, reference compound] | – | – | EC50 [2]: ~0.25 nM
Acr-Glu-Glu-Pro-Pro-Ile-Ser-Leu-Asp-Leu-Thr-D-Phe-His-Leu-Leu-Arg-Glu-Val-Leu-Glu-Nle-Ala-Arg-Ala-Glu-Gln-Leu-Ala-Gln-Gln-Ala-D-His-Ser-Asn-Arg-Lys-Leu-NIe-Glu-Ile-Ile-NH₂ | very significant lowering of blood pressure | stimulates the secretion of ACTH and β-END-LI | –
For-Ser-GlU-GlU-Pro-Pro-Ile-Ser-Leu-Asp-Leu-Thr-D-Phe-His-Leu-Leu-Arg-Glu-Val-Leu-Glu-Nle-Ala-Arg-Ala-Glu-Gln-Leu-Ala-Gln-Gln-Ala-D-His-Ser-Asn-Arg-Lys-Leu-Nle-Glu-Ile-Ile-NH₂ | very significant lowering of blood pressure | stimulates the secretion of ACTH and β-END-LI | –
H-GlU-Pro-Pro-Ile-Ser-Leu-Asp-Leu-Thr-D-Phe-His-Leu-Leu-Arg-Glu-Val-Leu-D-GlU-Met-Ala-Arg-Ala-Glu-Gln-Leu-Ala-Gln-Gln-Ala-His-Ser-Asn-Arg-Lys-Leu-Met-Glu-Ile-Ile-NH₂ [[D-Phe¹², D-Glu²⁰]-rCRF(3-41)] | very significant lowering of blood pressure | stimulates the secretion of ACTH and β-END-LI | –
H-SQEPPISLDLTFHLLREVL[dE][Nle]TK[dA]DQLAQQAHSNRKL[Nle]DIA-NH2 [[D-Glu²⁰, D-Ala²⁴, Nle^21,38]-oCRF] | very significant lowering of blood pressure | – | –
H-SQEPPISLDLTFHLLRE[Nle]L[dE][Nle]AKAEQEAEQA[dH]LNRLLLEEA-NH2 [[Nle^18,21, D-Glu²⁰, D-His³²]-AHC] | very significant lowering of blood pressure | stimulates the secretion of ACTH and β-END-LI | –
H-SQEPPISLDLTFHLREVL[dE][Nle]TKADQLAQQAHSNRKLLDIA-NH2 [[D-Glu²⁰, Nle²¹]-oCRF] | very significant lowering of blood pressure | stimulates the secretion of ACTH and β-END-LI | –
H-SQEPPISLDLT[dF]ELLREMLEIAKAEQEAEQAALNRKYLEEV-NH2 | very significant lowering of blood pressure | stimulates the secretion of ACTH and β-END-LI | –
H-SQEPPISLDLT[dF]HLLREML[dE]RAKAEQEAEQAALNRLLLEEA-NH2 [[D-Phe¹², D-Glu²⁰, Arg²¹]-AHC] | very significant lowering of blood pressure | stimulates the secretion of ACTH and β-END-LI | –
H-SQEPPISLDLT[dF]HLLRE[Nle]LE[Nle]AK[dA]EQEAEQAALNRLLLEEA-NH2 [[D-Phe¹², Nle^18,21, D-Ala²⁴]-AHC] | very significant lowering of blood pressure | stimulates the secretion of ACTH and β-END-LI | –
H-SQE[dP]PISLDLT[dF]HLLRE[Nle]LE[Nle]AKAEQEAEQAAINRNLLEEA-NH2 | very significant lowering of blood pressure | stimulates the secretion of ACTH and β-END-LI | –
H-SQ[dY]PPISLDLTFHLLRE[Nle]L[dE][Nva]AK[dA]EQEAEQAALNRLLLEEA-NH2 | very significant lowering of blood pressure | stimulates the secretion of ACTH and β-END-LI | –
H-Ser-Gln-GluU-Pro-Pro-Ile-Ser-Leu-Asp-Leu-Thr-D-Phe-His-Leu-Leu-Arg-Glu-Val-Leu-Glu-Nle-Thr-Lys-Ala-Asp-Gln-Leu-Ala-Gln-Gln-Ala-His-Ser-Asn-Arg-Lys-Leu-Leu-Asp-Ile-Ala-NH₂ [[D-phe¹², Nle²¹ -oCRF] | very significant lowering of blood pressure | stimulates the secretion of ACTH and β-END-LI | –
H-Ser-Glu-Glu-pro-pro-lle-Ser-Leu-Asp-Leu-Thr-D-Phe-Glu-Leu-Leu-Arg-Glu-Nle-Leu-Glu-Met-Glu-Orn-Ala-Glu-Lys-Glu-Ala-Glu-Gln-Ala-Ala-Leu-Asn-Arg-Leu-Leu-Leu-Glu-Glu-Ala-NH₂ [[Glu^2,13,22 D-Phe¹², Nle¹⁸, Orn²³]-AHC] | very significant lowering of blood pressure | stimulates the secretion of ACTH and β-END-LI | –
